This is an account of results in US10875847B2, “Aminopyrazoles as selective janus kinase inhibitors” (Intervet Inc., priority 2016, dated 2020).

Series [1] in a line: IL-31 induced itching model. In kind it is in vivo, Beagle dogs. As to conditions: dog, in vivo, 1 mg/kg body weight; Beagle dogs, dosing before cIL-31 challenge; read-out: approximate Tmax.
A further series deals with cIL-31 induced pruritus. As to the kind of experiment: IL-31 induced itching model. In kind it is in vivo, Beagle dogs.
The target of a further series is JAK1 (Homo sapiens (Human), UniProt P23458). The experiment in a line: Jak biochemical HTRF enzyme assay, JAK1.
Chain of JAK1 (P23458 875-1153): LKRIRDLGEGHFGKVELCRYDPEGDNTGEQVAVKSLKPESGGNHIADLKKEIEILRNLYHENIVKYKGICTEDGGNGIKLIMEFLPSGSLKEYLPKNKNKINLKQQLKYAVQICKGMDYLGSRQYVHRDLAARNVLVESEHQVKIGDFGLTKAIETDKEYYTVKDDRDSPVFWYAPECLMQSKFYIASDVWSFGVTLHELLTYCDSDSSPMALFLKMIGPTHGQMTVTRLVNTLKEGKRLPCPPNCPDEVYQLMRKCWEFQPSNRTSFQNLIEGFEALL
Series [2] in a line: Dog pharmacokinetics after IV administration. As to conditions: in vivo, 0.25 mg/kg I.V. The method, then:
Examples of the instant invention were evaluated in JAK1, JAK2, and JAK3 in vitro binding assays, and IL-6 and EPO cell pathway engagement assays, as described above. Table 1 tabulates the IC50 values of the instant invention in the JAK1, JAK2, and JAK3 in the in vitro binding assays, and the IL-6 and EPO cell pathway engagement assays, as well as the ratio of the JAK2/JAK1 IC50s, JAK3/JAK1 IC50s, and the EPO/IL-6 IC50s. Table 2 tabulates the pharmacokinetic parameters of the instant invention in the dog after IV administration.

The nature of series [3]: 6-week pilot target animal safety study. To be noted: for NOAEL at 6 weeks: dog, in vivo, po.
Procedure: The drug was administered orally, as a compressed tablet, twice per day for 6 weeks to dogs at 1, 3, and 5 times the maximum exposure dose of 0.5 mg/kg, or once per day for 6 weeks to dogs at 5 times the maximum exposure dose of 1 mg/kg.
Series [4] concerns Interleukin 6 (IL6)—JAK1/JAK2-STAT4 Pathway. The experiment in a line: IL6 CellSensor cell pathway engagement assay (SIE-bla ME-180 cells). To be noted: for IC50: Homo sapiens; for EPO/IL-6: Table 3, comparative examples.
Source text: Inhibition of the activity of JAK1 and JAK2 kinases in intact cells was quantified in antagonist mode using CellSensor® transcriptional reporter technology (Life Technologies/ThermoFisher: https://www.thermofisher.com/us/en/home/industrial/pharma-biopharma/drug-discovery-development/target-and-lead-identification-and-validation/pathway-biology/cellular-pathway-analysis/cellsensor-cell-lines.html), in two independent cell lines engineered to detect IL4, IL6 and EPO signaling. In brief, CellSensor® cell lines (see details below for each assay) carrying a stably integrated β-Lactamase reporter gene under control of specific cis-regulatory STAT elements responsive to the pathway being monitored were pre-treated with test compounds serially diluted in DMSO (see preparation and dosing of compounds and agonist cytokines section). […] Incubation with compounds, cytokines and LiveBLAzer™ were carried out at 37° C. in a tissue culture incubator maintained at 90% humidity and 5% CO2.
Interleukin 6 (IL6)—JAK1/JAK2-STAT4 Pathway:
CellSensor™ SIE-bla ME-180 cells carrying a stably integrated β-Lactamase reporter gene under control of the Sis-Inducible Element (SIE).
Each CellSensor® cell line was subsequently plated as per supplier's instructions (30,000 cells in 32 μL/well) and mixed with compound. Following a 60 minute incubation cells were subsequently stimulated by addition of 8 μL of cognate cytokine (EC80 dose of IL6 and EPO) and incubated for an additional 3 hours, before adding LiveBLAzer™-FRET B/G substrate.
The next series concerns the target JAK3 (Homo sapiens (Human), UniProt P52333). The experiment in a line: Jak biochemical HTRF enzyme assay, JAK3. To be noted: Table 1. The source says: Jak Biochemical HTRF Enzyme Assay Protocol
The ability of compounds to inhibit the catalytic activity of JAK1, JAK2, JAK3, and TYK2 was quantified using a recombinant purified GST-tagged catalytic domain for each enzyme (InVitrogen/Life Technologies/ThermoFisher, catalogue #s: JAK1, #M4290; […]) in an HTRF format biochemical assay. […] Subsequent reagent additions employed an Agilent Bravo automated liquid handler. […] After normalization to untreated controls, the percent inhibition of the HTRF signal at each compound concentration was calculated. The plot of percent inhibition versus the log value of compound concentration was done as described above for cell assays to calculate IC50 values.

Series [5] concerns Erythropoietin (EPO)—JAK2-STAT5 Pathway. As to the kind of experiment: EPO CellSensor cell pathway engagement assay (irf1-bla TF-1 cells). It is filed as cell-based. To be noted: Homo sapiens, Table 1. The method, then: In brief, CellSensor® cell lines (see details below for each assay) carrying a stably integrated β-Lactamase reporter gene under control of specific cis-regulatory STAT elements responsive to the pathway being monitored were pre-treated with test compounds serially diluted in DMSO (see preparation and dosing of compounds and agonist cytokines section). […] Incubation with compounds, cytokines and LiveBLAzer™ were carried out at 37° C. in a tissue culture incubator maintained at 90% humidity and 5% CO2.
CellSensor irf1-bla TF-1 cells carry a stably integrated β-Lactamase reporter gene under control of the STAT5 Response Elements present in the Interferon Regulatory Factor I (IRF1) gene promoter.

The conditions of series [6]: dogs, higher doses; cited from earlier work.
For series [7] the following is noted: dogs with allergic or atopic dermatitis; cited from earlier work.
[8] abbreviates: 0.5 mg/kg body weight, second study.
[9] abbreviates: dogs, oral, 6 weeks, up to 5 times maximum exposure dose.
Setting [10] is: ME-180, read-out: IL-6 IC50 (nM).

Like-named read-outs stand apart in the source and are kept apart here. Where only a bound is given, the exact number is not on record here.

Chain of JAK3 (P52333 822-1111): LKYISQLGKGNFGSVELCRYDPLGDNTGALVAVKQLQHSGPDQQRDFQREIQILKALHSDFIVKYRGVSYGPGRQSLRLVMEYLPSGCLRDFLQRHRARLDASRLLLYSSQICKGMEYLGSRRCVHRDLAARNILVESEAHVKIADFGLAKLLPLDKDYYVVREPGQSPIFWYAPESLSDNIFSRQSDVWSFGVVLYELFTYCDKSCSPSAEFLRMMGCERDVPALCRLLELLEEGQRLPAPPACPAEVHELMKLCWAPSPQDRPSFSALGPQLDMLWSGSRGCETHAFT

Consider `COc1cc(Nc2nn([C@H]3COCC[C@@H]3C#N)cc2C(N)=O)cc(F)n1` (single isomer, unassigned) [Compound 1, 1-((3R,4S) or (3S,4R)-4-cyanotetrahydro-2H-pyran-3-yl)-3-((2-fluoro-6-methoxypyridin-4-yl)amino)-1H-pyrazole-4-carboxamide], for which, in [1], the Tmax is around 2 h. Further, the “suppression of cIL-31 induced pruritus” value with cIL-31 induced pruritus (0.05 mg/kg body weight (sentence prints 0.5), second study) is “not”; with cIL-31 induced pruritus (0.1 mg/kg body weight, second study) it was “not”; in the series on cIL-31 induced pruritus (setting [8]) it was “significantly suppressed”; in the series with cIL-31 induced pruritus (1 mg/kg body weight, dosed 2 h prior to cIL-31 challenge, first study), “significantly suppressed”. For the same compound, the “magnitude of effect compared with Apoquel” value in the series on cIL-31 induced pruritus (setting [8]) is recorded as “similar”. Moreover, the “magnitude of pruritus suppression compared with Apoquel” value in the series on cIL-31 induced pruritus (1 mg/kg body weight, first study) is “similar”. The IC50 is 0.43 nM against JAK1, 41.8 nM in series [4] (setting [10]), 1130 nM at JAK3 and 460 nM in series [5]. Further, the AUC in [2] worked out at 1.29 µM·h. Moreover, the clearance in [2] came to 9.42 mL/min/kg. For the same compound, in [2], the half-life was 4.38 h. Also, in series [2] (read-out: Vdss), the Vd was 1.95 L/kg. For the same compound, the NOAEL at 6 weeks was 2.5 mg/kg in series [3] and 5 mg/kg/day in series [3] (5 mg/kg once per day). Also, the “test article related effects in clinical observations, fecal observations, body weight, food consumption, physical examination, blood pressure, ophthalmology, cardiology” value in series [3] (setting [9]) is given as “No test article related effects were observed”. The “test article related effects in postmortem evaluations (organ weights, macroscopic and microscopic findings)” value in series [3] (setting [9]) was “No test article related effects were observed”.

In the case of `CN(C)[C@H]1CC[C@H](n2cc(C(N)=O)c(Nc3ccc(Cl)cc3)n2)[C@@H](C#N)C1` (single isomer, unassigned) [Reference Compound A, 3-[(4-chlorophenyl)amino]-1-[(1S,2S,4S or 1R,2R,4R)-2-cyano-4-(dimethylamino)cyclohexyl]-1H-pyrazole-4-carboxamide], the IC50 against JAK1 (Table 3, comparative examples) turned out to be 1.67 nM.

`CS(=O)(=O)c1ccc(Nc2nn([C@H]3CCCC[C@@H]3C#N)c3cc[nH]c(=O)c23)cc1` [B, (1S,2S)-2-(3-{[4-(methylsulfonyl)phenyl]amino}-4-oxo-4,5-dihydro-1H-pyrazolo[4,3-c]pyridin-1-yl)cyclohexanecarbonitrile]: the “potency in IL6 CellSensor assay relative to EPO CellSensor assay” value in series [4] (IL6 versus EPO assay) is “within two-three fold”.

`COc1cc(Nc2nn([C@@H]3COCC[C@H]3C#N)cc2C(N)=O)cc(F)n1` [Enantiomer of 1]: the IC50 was 17.7 nM at JAK1 (Table 1), 2440 nM in series [4] (setting [10]), above 1250 nM at JAK3 and 9480 nM in [5].

At JAK1 (Table 3, comparative examples), `N#CCC1(n2cc(-c3ncnc4[nH]ccc34)cn2)CN(C2CCN(C(=O)c3ccnc(C(F)(F)F)c3F)CC2)C1` [INCB39110] displayed an IC50 of 0.3 nM and a JAK2/1 of 10x. In addition, the IC50 in [4] (ME-180, read-out: IL-6 IP (nM)) amounted to 97 nM. In series [4], this compound registered an EPO/IL-6 of 5x.

`N#CC[C@H](C1CCCC1)n1cc(-c2ncnc3[nH]ccc23)cn1` [JAKAFI]: the JAK2/1 at JAK1 was found to be 0.7x. Also, the IC50 in [4] (ME-180, read-out: IL-6 IP (nM)) amounted to 40 nM. This compound also had an EPO/IL-6 in [4] of 0.2x.

Turning to `CNS(=O)(=O)C[C@H]1CC[C@H](N(C)c2ncnc3[nH]ccc23)CC1` [Oclacitinib], the IC50 against JAK1 (Table 3, comparative examples) came out at 3.4 nM; in series [4] (ME-180, read-out: IL-6 IP (nM)), 230 nM. Moreover, the JAK2/1 on JAK1 (Table 3, comparative examples) stood at 2.0x. For the same compound, the EPO/IL-6 in [4] worked out at 2.4x. In addition, the “effect on hematocrit, hemoglobin and reticulocyte counts” value in [6] was “reduction”. The “effect on pruritus and lesions” value in [7] is “rapid amelioration of pruritus and reduces lesions”.

Usually Tmax stands for the time from dosing to the highest level. As a reminder, the AUC is concentration integrated over time. In general, clearance refers to the rate of elimination divided by the concentration. The low end stands for a low capacity for elimination, the high end for a high capacity for elimination. In general, half-life refers to the time in which the quantity being followed falls by half. One may read the NOAEL as the highest tested level that showed no adverse finding.
